Molecules are shown by their SMILES. Active and inactive are the calls of the source. No rule for the calls is given here. A value given as a limit tells only on which side of the number the result lay.

As a reminder, the IC50 is the concentration at which inhibition is half-maximal.

For this assay, the target named is NEDD8-conjugating enzyme Ubc12 (Homo sapiens) + NEDD8-activating enzyme E1 regulatory subunit (Homo sapiens) (UniProt P61081+Q13564). Nature of the assay: NEDD8 conjugation to CUL1 blockade – biochemical, TR-FRET, dose response (AID 652247). The note with it: in vitro CUL1 neddylation. In general terms: TR-FRET usually uses a lanthanide donor and a delayed reading to cut background.
Chain of NEDD8-conjugating enzyme Ubc12 (Homo sapiens) + NEDD8-activating enzyme E1 regulatory subunit (Homo sapiens) (P61081 whole entry, looked up): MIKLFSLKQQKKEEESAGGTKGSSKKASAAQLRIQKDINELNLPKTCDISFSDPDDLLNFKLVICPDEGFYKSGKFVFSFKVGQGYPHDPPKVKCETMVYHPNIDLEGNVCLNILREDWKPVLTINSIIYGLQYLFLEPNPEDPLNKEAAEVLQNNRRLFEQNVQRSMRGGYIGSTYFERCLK
Chain of NEDD8-conjugating enzyme Ubc12 (Homo sapiens) + NEDD8-activating enzyme E1 regulatory subunit (Homo sapiens) (Q13564 whole entry, looked up): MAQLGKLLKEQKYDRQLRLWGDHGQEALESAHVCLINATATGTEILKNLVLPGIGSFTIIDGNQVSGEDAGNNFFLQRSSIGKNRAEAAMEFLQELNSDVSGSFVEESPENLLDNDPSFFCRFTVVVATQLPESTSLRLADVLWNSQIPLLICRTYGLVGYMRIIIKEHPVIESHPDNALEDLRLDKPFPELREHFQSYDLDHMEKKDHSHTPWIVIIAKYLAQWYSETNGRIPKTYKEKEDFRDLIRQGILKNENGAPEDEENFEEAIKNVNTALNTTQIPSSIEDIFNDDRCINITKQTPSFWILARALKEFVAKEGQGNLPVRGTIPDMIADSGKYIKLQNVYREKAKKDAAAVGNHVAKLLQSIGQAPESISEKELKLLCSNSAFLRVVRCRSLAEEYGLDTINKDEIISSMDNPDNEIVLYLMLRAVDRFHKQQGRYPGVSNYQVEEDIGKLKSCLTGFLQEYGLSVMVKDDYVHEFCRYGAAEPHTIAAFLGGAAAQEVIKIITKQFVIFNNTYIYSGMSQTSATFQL

With `Cc1cccn2c(=O)c(C=NCc3ccccc3)c(NCCO)nc12`, the IC50 entry is “inactive”.
Take `CCOC(=O)Cn1nc(/C=C/c2ccccc2)ccc1=O`: the IC50 entry is “inactive”.
Regarding `CCOc1ccc2[nH]c3ncccc3c(=O)c2c1`, the IC50 result was “inactive”.
With `CN(C)CCNc1nc(-c2ccco2)c2c(c1C#N)CC(C)(C)OC2`, the IC50 entry is “inactive”.
As for `CCOCCCn1c(=NC(=O)c2cccnc2)c(C(=O)OCC)cc2c(=O)n3ccccc3nc21`, the IC50 result is “inactive”.
Under `C=CCNC(=O)c1ccc2c3n(nc2c1)-c1ccc(C)cc1CO3` stands “inactive”.
For `O=C(O)CCc1ccc(-c2ccccc2)n1CC1CCCO1` (configuration not stated), the IC50 result was “inactive”.
Turning to `COc1ccc2cc(C(=O)N/N=C/c3cc(OC)c(OC)c(OC)c3)[nH]c2c1`, the IC50 entry is “inactive”.
Next, `Cc1ccc2oc(-c3ccco3)cc(=O)c2c1`: “inactive”; `COc1ccc(-c2cc(C(=O)N3CCN(c4ccccc4O)CC3)c3ccccc3n2)cc1OC`: “inactive”.
Under `Nc1ncnc2c1ncn2C1OC(COP(=O)(O)O)C(O)C1O` (configuration not stated) stands 17.4 µM; under `COc1ccc2sc(-c3ccc(SC)cc3)c(C#CCO)c2c1`, “inactive”.
Next, `Cc1cccc(C)c1NC(=O)C(C1CC1)n1c(=O)c(-c2ccccc2)nc2ccccc21` (configuration not stated): “inactive”.
`COc1ccc2cc3cc(C(=O)NCCc4ccc(OC)c(OC)c4)oc3nc2c1`: the IC50 is 19.7 µM.
Next, `COc1ccc(-n2cc(CNCc3cnc4ccccn34)c(-c3cccc(F)c3)n2)cc1`: “inactive”; `CCN(/N=C/c1ccc(N(C)C)cc1)c1nc2ccccc2[nH]1`: “inactive”; `Cc1ccc(Cn2c(=N)c(C(=O)NCCN3CCOCC3)cc3c(=O)n4ccccc4nc32)cc1`: 17.5 µM.
Under `CCN(CC)c1ccc(/C=N/NC(=O)CNC(=O)c2cccs2)cc1` stands 14.9 µM; under `Cc1cccn2c(=O)c3cc(C(=O)NC4CCCC4)sc3nc12`, 9.39 µM; under `COCc1cc(C)nc2sc(C(=O)Nc3ccc(OC)cc3)c(N)c12`, > 100 µM (inactive).
Under `COc1ccc(C[C@H]2c3cc(O)c(OC)cc3CC[N+]2(C)[O-])cc1O` (some centres not stated) stands “inactive”; under `CCN(CC)c1ccc(/C=N/NC(=O)C2CC2)cc1`, “inactive”.
With `Cc1cccc(C)c1NC(=O)C(c1ccncc1)n1c(=O)c(-c2ccccc2)nc2ccccc21` (configuration not stated), the IC50 entry is “inactive”.
Under `COCCN1C=C(C(=O)OC)C(c2ccc3c(c2)OCO3)C(C(=O)OC)=C1` stands “inactive”; under `CCN(CC)CCNC(=O)Cn1c(-c2ccccn2)nc2ccccc21`, “inactive”.
Next, `CN(C)c1ccc(/C=N/NC(=O)COc2ccccc2)cc1`: “inactive”; `Cc1ccc(-n2c3nc(=O)n(C)c(=O)c-3cc3ccccc32)cc1`: 17.9 µM; `CC(=O)c1ccc(-c2ccc(C(=O)NCC(c3ccc(F)cc3)N3CCOCC3)o2)cc1` (configuration not stated): “inactive”.
Under `CCN(CC)c1ccc(/C=N/NC(=O)CC(C)C)cc1` stands “inactive”; under `COc1cccc(N(C(=O)c2snc(C(N)=O)c2N)C(C(=O)NCc2ccccc2)c2ccc(O)cc2)c1` (configuration not stated), “inactive”; under `COc1ccc(OC)c(C=NNC(=O)c2ccccc2NS(=O)(=O)c2cccs2)c1`, “inactive”.
On to `COc1ccc(C(=O)n2cc(C(=O)c3cc(C)ccc3O)cn2)cc1OC`, for which the IC50 result was “inactive”.
Under `CC(=CCOc1ccc2ccc(=O)oc2c1)C1=CC(=O)C(C)(C)O1` stands “inactive”; under `COC(=O)c1ccc(C(=O)OC)c(=O)[nH]1`, “inactive”.
With `COc1ccc(C(CC(=O)N2CCCCC2)c2c(OC)cc(OC)c3ccc(=O)oc23)cc1` (configuration not stated), the IC50 entry was “inactive”.
Next, `C=CCN1C(=O)C(CC(=O)O)S/C1=N/N=C/c1ccc(N(CC)CC)cc1` (configuration not stated): “inactive”; `COc1ccccc1N(C(=O)c1snc(C(N)=O)c1N)C(C(=O)NC1CCCC1)c1ccco1` (configuration not stated): “inactive”; `COc1cccc(Cn2cc(/C=N/NC(=O)c3cc(O)cc(O)c3)c3ccccc32)c1`: “inactive”.
Under `c1cc2c3c(cccc3c1)-c1cnccc1-2` stands “inactive”; under `Nc1c2c(=O)oc(-c3ccccc3)cc2nn1-c1ccccc1`, “inactive”; under `O=C(CSc1cccc2cccnc12)Nc1cc(C(=O)O)cc(C(=O)O)c1`, “inactive”.
As for `Cc1cc(C)n2nc(-c3cnn(C)c3C(F)(F)F)cc2n1`, the IC50 result is “inactive”.
As to `Nc1ncnc2c1ncn2[C@@H]1O[C@H](COP(=O)(O)O)[C@@H](O)[C@H]1O`, the IC50 entry is “inactive”.
Next, `CSc1ccc(/C=C2\CCn3c2nc2cc(C(=O)O)ccc2c3=O)cc1`: 19.4 µM; `CCN1CCN(C(=O)c2ccc3nc(-c4ccccc4)c(-c4ccccc4)nc3c2)CC1`: “inactive”.
For the molecule `CC1CCCC(C)N1C(=O)CN1c2cccc3cccc(c23)S1(=O)=O` (configuration not stated), the IC50 result is “inactive”.
Next, `CCOC(=O)c1cc2c(=O)n3ccccc3nc2n(CCOC)c1=NC(=O)c1ccncc1`: “inactive”.
As for `CCN(CC)c1ccc(/C=N/NC(=O)Cc2ccc(OC)c(OC)c2)cc1`, the IC50 entry was “inactive”.
Next, `c1ccc(-c2oc3ncnc(NCCCN4CCOCC4)c3c2-c2ccccc2)cc1`: “inactive”; `COc1cc(C=NNC(=O)c2ccc(NS(=O)(=O)c3cccs3)cc2)cc(Br)c1O`: “inactive”; `Cc1cccn2c(=O)c3cc(C(=O)N4CCCCC4C)sc3nc12` (configuration not stated): “inactive”.
Under `CC(=O)OCCc1c2ccccc2c(CCCN(C)C)c2ccccc12` stands 11.9 µM; under `CS(=O)(=O)c1ccc2nc(NC(=O)c3ccc(Cl)nc3)sc2c1`, 14 µM.
Regarding `O=C(NCCc1ccc(Cl)cc1Cl)C1=CC=CN2CCS(=O)(=O)N=C12`, the IC50 result was “inactive”.
Consider `O=C(NC1CCCCC1)C(c1ccncc1)n1c(=O)c(-c2ccccc2)nc2ccccc21` (configuration not stated), for which the IC50 entry is “inactive”.
With `CC(=O)N1N=C2/C(=C/c3ccccc3)CCCC2C1c1ccccc1` (configuration not stated), the IC50 entry was “inactive”.
`CN=Cc1c(NC)nc2c(C)cccn2c1=O`: the IC50 entry was “inactive”.
Under `COCCCNC(=O)/C(C#N)=C/c1c(N2CCN(c3ccccc3)CC2)nc2ccccn2c1=O` stands “inactive”; under `COC(=O)c1ccc2[nH]c3c(c2c1)CC(C)CC3` (configuration not stated), “inactive”.
Under `COCCNc1c2c(c(C#N)c3nc4ccccc4n13)CCCC2` stands “inactive”.
Next, `Cc1ccc2c(c1)COc1c3ccc(C(=O)NCCO)cc3nn1-2`: “inactive”.
As to `COc1cc2c(cc1OC)-c1cc(NCc3ccccn3)nc(=O)n1CC2`, the IC50 entry is “inactive”.
Turning to `O=C(Nc1cc(C(=O)Nc2ccccc2C(=O)O)cc(C(=O)Nc2ccccc2C(=O)O)c1)c1ccccc1`, the IC50 was > 100 µM (inactive).
`CCC(=O)N/C(N)=N/c1nc(C)c2cc(OC)ccc2n1`: the IC50 result was “inactive”.
Next, `COc1ccc2[nH]c(C(=O)N/N=C/c3cc(OC)c(OC)c(OC)c3)cc2c1`: “inactive”; `O=C(N/N=C/c1ccc2cccnc2c1)c1nc2ccccc2c(=O)[nH]1`: > 100 µM (inactive); `O=c1oc2ccccc2cc1-c1cn2cccnc2n1`: “inactive”.
Under `Cc1cc(-c2ccccc2)c2nncn2n1` stands “inactive”; under `CCc1c(C)c2ccc(OC(C)C(=O)NC(Cc3c[nH]c4ccc(O)cc34)C(=O)O)c(C)c2oc1=O` (configuration not stated), “inactive”; under `COc1ccc(-c2cn3cccnc3n2)cc1NC(=O)c1cccs1`, “inactive”.
Next, `Cc1ccccc1NC(=O)NNC(=O)c1ccc2ccccc2c1O`: “inactive”.
Turning to `Cc1ccc2cc3cc(C(=O)NCCN4CCOCC4)oc3nc2c1`, the IC50 is 16.9 µM.
For `O=C(CCCc1c[nH]c2ccccc12)N1CCN(c2ccc(N3CCOCC3)nn2)CC1`, the IC50 result is “inactive”.
Turning to `Cc1ccc(-c2cc(C(=O)NCCCN3CCOCC3)c3ccccc3n2)cc1`, the IC50 result was “inactive”.
As to `CCOc1cc(/C=C/C(=O)Nc2ccc(C(=O)NCCN(CC)CC)cc2)ccc1OCC(C)C`, the IC50 entry was “inactive”.
With `COCCNC(=O)c1ccc2c3n(nc2c1)-c1ccc(C)cc1CO3`, the IC50 result was “inactive”.
Next, `N=c1c(C(=O)NCCN2CCOCC2)cc2c(=O)n3ccccc3nc2n1Cc1ccc(F)cc1`: 16.5 µM; `O=C(N/N=C/c1c(O)n(-c2ccccc2Cl)c(=O)c2ccccc12)C1COc2ccccc2O1` (configuration not stated): “inactive”; `CCC(=O)Nc1nnc(/C=C/c2ccccc2)s1`: > 100 µM (inactive).
Under `CC(C(=O)NCC1CCCO1)N(C(=O)c1snc(C(N)=O)c1N)c1cccc(F)c1` (configuration not stated) stands “inactive”; under `COCCNC(=O)COC(=O)c1cc(-c2ccc(OC)cc2)nc2ccccc12`, “inactive”; under `COc1ccccc1/C=N/NC(=O)c1ccccc1NS(=O)(=O)c1ccc(C)cc1`, “inactive”.
Under `COC(=O)c1ccc(-c2ccc(/C=N/NC(=O)CC3(C)OCCCO3)o2)cc1` stands “inactive”; under `COc1cc2sc(-c3ccc(S(C)(=O)=O)cc3)c(C#CCO)c2cc1OC`, “inactive”; under `CN(C)c1ccc(/C=N/NC(=O)C2CC2c2ccccc2)cc1` (configuration not stated), “inactive”.
Take `COc1ccc(-c2cc(=O)c3cc(O)ccc3o2)cc1`: the IC50 result is “inactive”.
As to `O=C(O)c1sc2cc(C(F)(F)F)cnc2c1-c1cccs1`, the IC50 result is “inactive”.
As for `O=C(O)c1ccc2c(=O)n3c(nc2c1)/C(=C/c1ccc(C(F)(F)F)cc1)CC3`, the IC50 result was “inactive”.
Under `COCc1cc(C)nc(NC2CC(C)(C)NC(C)(C)C2)c1C#N` stands “inactive”; under `Cc1cc(NC(=O)COC(=O)c2nccnc2N)n(-c2ccccc2)n1`, 13.2 µM.
Consider `CC(NC(=O)C1=CC=CN2CCS(=O)(=O)N=C12)c1ccc(Cl)c(Cl)c1` (configuration not stated), for which the IC50 result is “inactive”.
Under `CCCc1c(O)c2ccccc2[nH]c1=O` stands “inactive”.

The values are drawn from PubChem BioAssay AID652247 (Sanford-Burnham Center for Chemical Genomics, 2013).
